According to PMC9223397 (International Journal of Molecular Sciences, 2022):

Tests used:
[1] = system: spinal MNs after L4-L5 rhizotomy; assay: MN survival after L4-L5 rhizotomy (cresyl violet MN counts); format: in vivo, female mice (B6SJL)
Protocol: (§1) Surgeries were performed on three-month-old mice under anesthesia with ketamine-xylazine (100–10 mg/kg i.p.) as previously described. Briefly, the L4-L5 spinal roots were exposed by a small laminectomy on the right side. Afterwards, roots were cut at the exit from the intervertebral foramina, and the root stumps were separated. Mice were cared for until recovery in a warm environment. Analgesia was provided with buprenorphine (0.1 mg/kg) for the next 48 h post-surgery.
(§2) The compounds were dissolved in 0.5% hydroxypropyl-methylcellulose (HPMC; H7509, Sigma-Aldrich) in distilled water and were administered by intraperitoneal (i.p.) route twice daily (bid) in a volume of 10 mL/kg. Administrations were given from 30 min after rhizotomy surgery until 42 days post-injury (dpi), the end of the study; in the SOD1^G93A study, treatments were given from 8 to 16 weeks of age (see Figure 6).
At the end of follow-up (42 dpi for rhizotomy and 16 weeks of age for ALS mice; Figure 6), the animals were deeply anesthetized and transcardially perfused with 4% PFA in PBS. The lumbar spinal cord and the TA muscle were harvested and cryopreserved in 30% sucrose solution in PB. The spinal cords were serially cut in 20 µm thick transverse sections with a cryostat (Leica, Mannheim, Germany). For MN counting, L4-L5 spinal cord sections separated 100 µm were stained for 3 h with an acidified solution of 3.1 mM cresyl violet. MNs were identified by their localization in the lateral ventral horn of the spinal cord and were counted following strict size and morphological criteria: only MNs with a diameter larger than 20 µm, polygonal shape, and prominent nucleoli were counted.

[2] = Plasma levels, spinal nerve injury (rhizotomy) model; format: in vivo, female mouse; details: ip
Protocol: as §2
Plasma levels were determined in the two in vivo models evaluated to be able to associate the pharmacological activity with the levels present in plasma. […] In the SOD1^G93A model, the plasma levels were evaluated at 16 weeks of age (after 8 weeks of administration) and 15 min after compound administration (5 mg/kg i.p.). Plasma samples were assayed by ultraperformance liquid chromatography−triple quadrupole mass spectrometry (UPLC-MS/MS) after plasma protein precipitation. Results are expressed as mean ± standard deviation (n = 8).

[3] = system: microglia and astrocytes in ventral horn after rhizotomy; assay: Glial reactivity after L4-L5 rhizotomy (Iba1, GFAP immunolabeling); format: in vivo, female mice (B6SJL); details: 5 mg/kg bid i.p., 42 dpi; for GFAP integrated density ± SEM (astroglial reactivity): untreated 19 × 10^4; for Iba1 integrated density ± SEM (microglial reactivity): untreated 26 × 10^4
Protocol: as §1, §2
(§3) For glial cells immunofluorescence, other lumbar spinal cord sections were blocked with 10% normal donkey serum and incubated overnight with primary antibodies rabbit anti-Iba1 (1:500; 019–19741, Wako) and rat anti-GFAP (1:500; 13-0300, Invitrogen) to label microglia and astroglia, respectively. After several washes, sections were incubated with secondary antibodies Alexa Fluor 488-donkey anti-rat (1:500; A-21208, Invitrogen) or Alexa Fluor 594 donkey anti-rabbit (1:500; A21207, Invitrogen). Finally, sides were mounted with Fluoromount-G. To quantify glial cell reactivity, images of the ventral horn were acquired with an epifluorescence microscope (Nikon Eclipse Ni, Japan) using the same conditions for each analyzed marker. After defining a threshold for background correction, the integrated density of GFAP or Iba1 labeling was measured using ImageJ software.

[4] = system: NMJs of hindlimb muscle in SOD1^G93A mice; assay: Neuromuscular junction innervation in SOD1G93A mice; format: in vivo, SOD1^G93A male mice; details: 5 mg/kg i.p.; 16 weeks of age
Protocol: as §2
For neuromuscular junction (NMJ) labeling, 50 µm thick longitudinal sections of TA muscle were serially cut. Sections were blocked with 5% normal donkey serum and incubated with primary antibodies rabbit anti-synaptophysin (1:500; Ab32127, Abcam, Cambridge, UK) and chicken anti-neurofilament 200 (NF200, 1:1000; AB5539, Millipore, Burlington, MS, USA) 48 h at 4 °C. After washes, sections were incubated overnight with secondary antibody Alexa Fluor 594-donkey anti-rabbit and anti-chicken (1:200; A11042-A21207, Invitrogen, USA) and Alexa 488 conjugated α-bungarotoxin (1:500; B13422, Life Technologies, Carlsbad, CA USA). Confocal images were captured (LSM 700 Axio Observer, Carl Zeiss, Jena, Germany, 40xOil/z0.5), and the maximum projection images generated from 1.3 µm z projections. The proportion of innervated NMJs was calculated by classifying each endplate as occupied (when presynaptic terminals overlie the endplate) or vacant (no presynaptic label in contact with the endplate). At least 60 endplates were analyzed per muscle.

[5] = system: microglia and astrocytes in ventral horn of SOD1^G93A mice; assay: Glial reactivity in SOD1G93A mice (Iba1, GFAP); format: in vivo, SOD1^G93A male mice; details: 5 mg/kg i.p.; 16 weeks of age
Protocol: as §2, §3

[6] = Plasma levels, SOD1G93A model; format: in vivo, Transgenic SOD1^G93A male mouse; details: SOD1G93A transgenic, ip
Protocol: as §2
Plasma levels were determined in the two in vivo models evaluated to be able to associate the pharmacological activity with the levels present in plasma. In the rhizotomy model, the plasma levels were evaluated at Day 42 after surgery and at 15 min after compound administration (0.5 and 5 mg/kg i.p.). […] Plasma samples were assayed by ultraperformance liquid chromatography−triple quadrupole mass spectrometry (UPLC-MS/MS) after plasma protein precipitation. Results are expressed as mean ± standard deviation (n = 8).

SOD1^G93A mice = assay: Motor nerve conduction tests in SOD1G93A mice; format: in vivo, SOD1^G93A male mice
Protocol: as §2
Motor nerve conduction tests were performed before the surgery to obtain baseline values and at the end of the follow-up in the rhizotomy model, whereas the SOD1^G93A mice were evaluated at 8 weeks (prior to starting drug administration) and then every 2–3 weeks until the end point at 16 weeks of age (Figure 6). The sciatic nerve was stimulated by means of single pulses of 50 µs duration delivered from a Grass S88 stimulator through needle electrodes placed at the sciatic notch. The CMAP was recorded from TA, GM, and plantar interossei muscles with microneedle electrodes, with the active electrode being placed in the muscle and the reference at the fourth toe. […] The mice were anesthetized with pentobarbital (50 mg/kg i.p.), and their body temperature was maintained by means of a thermostatic warming pad.

[7] = 0.5 mg/kg bid i.p., 42 dpi, not significant
[8] = 5 mg/kg/bid i.p. 6 weeks, 42 days after injury, untreated injured 6.8 ± 0.3
[9] = 5 mg/kg i.p. from 8 weeks of age, early (11 weeks) and mid (13 weeks) stages

Row | SMILES | Number of spinal MNs ± SEM, ipsilateral ventral horn [1, 7] | Number of spinal MNs ± SEM, ipsilateral ventral horn [1, 8] | concentration at 15 min ([2]; female, mouse, in vivo, 0.5 mg/kg) | concentration at 15 min ([2]; female, mouse, in vivo, 5 mg/kg) | GFAP integrated density ± SEM (astroglial reactivity) [3] | Iba1 integrated density ± SEM (microglial reactivity) [3] | Proportion of innervated endplates (NMJ) vs vehicle [4] | Astrocyte activation (GFAP) [5] | Microglial activation (Iba1) [5] | concentration at 15 min ([6]; male, mouse, in vivo, 5 mg/kg) | CMAP amplitude of TA and plantar muscles vs vehicle (SOD1^G93A mice; [9]) | concentration at 15 min ([2]; plasma, rhizotomy female mouse, 0.5 mg/kg i.p. bid, day 42, read-out: Plasma Concentration 15 min Post-Administration, Mean) | concentration at 15 min ([2]; plasma, rhizotomy female mouse, 5 mg/kg i.p. bid, day 42, read-out: Plasma Concentration 15 min Post-Administration, Mean) | concentration at 15 min ([6]; plasma, SOD1G93A male mouse, 5 mg/kg i.p., after 8 weeks of administration, read-out: Plasma Concentration 15 min Post-Administration, Mean) | CMAP amplitude of TA and plantar muscles vs vehicle (SOD1^G93A mice; 5 mg/kg i.p., at 16 weeks of age)
1 | CCN1CC2(CCN(Cc3ccc(C#N)c(F)c3)CC2)O[C@@H](C)C1=O [EST79376] | 7.4 ± 0.7 | 8.7 ± 0.5 | 21 ng/mL | 592 ng/mL | 15 × 10^4 ± 2.7 × 10^4 | 25 × 10^4 ± 4 × 10^4 | tendency to preserve NMJ innervation, although differences did not reach statistical significance | significant decrease in astrocyte activation | did not reduce microglial activation | 692 ng/mL | only showed significant preservation of the CMAP amplitude in the plantar muscle at 13 weeks of age |  |  |  | 
2 | C[C@@H]1OC2(CCN(Cc3ccc(F)cc3)CC2)CN(C)C1=O [EST79232] | 7.6 ± 0.9 | 8.6 ± 0.6 |  |  | 4 × 10^4 ± 0.4 × 10^4 | 13 × 10^4 ± 2 × 10^4 | tendency to preserve NMJ innervation, although differences did not reach statistical significance | significant decrease in astrocyte activation | did not reduce microglial activation |  | significantly prevented the decline in amplitude of the CMAP of TA and plantar muscles | 20 ng/mL | 265 ng/mL | 425 ng/mL | effect was reduced to levels found in the vehicle group
